Data taken from patent publication US20250268967A1, “NUTRACEUTICAL COMPOUNDS USEFUL IN THE TREATMENT OF CORONAVIRUS DISEASE” (priority 2020, published 2025).
Read-outs that look alike come from different tables or passages of the source.

What was measured:
[1] = infected patients, 60 mg daily for four months; in words; cited from earlier work
[2] = molecular target: COVID-19 protease (Severe acute respiratory syndrome coronavirus 2, UniProt P0DTD1); conditions: molecular docking, in words; cited from earlier work
[3] = test system: SARS-CoV-2; test: In vitro antiviral immunostaining assay in Calu-3 cells; assay type: cell-based
[4] = in vitro; conditions: human
[5] = test system: SARS-CoV-2; test: microbe, parasite or virus in culture; assay type: cell-based
[6] = test system: Calu-3 cells; conditions: in words
[7] = from three publications; read-out: cytotoxicity (CC50); cited from earlier work
[8] = test system: SARS-CoV-2; test: In vitro antiviral assay, VeroE6 cells and Calu3 cells (cell line not separated in the statement); conditions: for inhibition of the SARS-CoV-2 virus: cell line not specified (FIG. 2, FIG. 6)
[9] = test system: SARS-CoV-2; test: In vitro antiviral immunostaining assay in Vero E6 cells
[10] = molecular target: T1, α-globulin (vitamin D-Binding Protein [DBP]) (Homo sapiens, UniProt P02774); conditions: binds weakly to α-globulin (DBP) after absorption via chylomicrons; cited from earlier work
T1 sequence (P02774 17-474): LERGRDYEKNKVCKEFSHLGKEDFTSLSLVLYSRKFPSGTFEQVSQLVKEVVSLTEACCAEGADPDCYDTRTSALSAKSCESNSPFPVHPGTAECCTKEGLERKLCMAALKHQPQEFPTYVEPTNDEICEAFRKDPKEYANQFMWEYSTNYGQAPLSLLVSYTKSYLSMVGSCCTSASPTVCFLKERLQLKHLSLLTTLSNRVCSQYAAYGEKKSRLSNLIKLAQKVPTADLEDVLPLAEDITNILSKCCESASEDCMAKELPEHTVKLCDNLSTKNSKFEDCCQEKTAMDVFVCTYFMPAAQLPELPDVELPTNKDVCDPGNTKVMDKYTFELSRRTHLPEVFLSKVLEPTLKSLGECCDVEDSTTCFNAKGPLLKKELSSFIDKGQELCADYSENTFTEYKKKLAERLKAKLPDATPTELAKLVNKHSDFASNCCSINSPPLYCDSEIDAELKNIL

For `CC1=C(/C=C/C(C)=C/C=C/C(C)=C/C=C/C=C(C)/C=C/C=C(C)/C=C/C2=C(C)CCCC2(C)C)C(C)(C)CCC1` [Beta Carotene, Beta-carotene], the clinical toxicity [1] is given as “No clinical toxicity was observed”.

For `C[C@@H]1C(=O)O[C@H]2C[C@@]34[C@H]5C[C@@H](C(C)(C)C)[C@]36[C@@H](OC(=O)[C@@H]6O)O[C@@]4(C(=O)O5)[C@]21O` [Ginkgolide A], the “predicted binding affinity to the COVID-19 protease” value [2] is given as “high binding affinity”.

With `CC(C)=CCC[C@](C)(O)[C@@H]1CC=C(C)CC1` [Levomenol, α-(−)-bisabolol] the “inhibition of the virus” value ([3]; Calu-3 cells infected with SARS-CoV-2, FIG. 3) was “about 60%”, the CC50 [4] was 3 µM and the “selectivity index (SI)” value ([5]; Calu-3 cells, from CC50 and EC50) was 26.1. The EC50 ([5]; Severe acute respiratory syndrome coronavirus 2, Calu-3 cells infected with SARS-CoV-2, FIG. 4, read-out: EC50 (antiviral activity against SARS-CoV-2)) was 0.115 µM and the “cytotoxicity, as measured by inhibition of cell viability” value [6] was “not observed”.

In the case of `CCC(CC)COC(=O)[C@H](C)N[P@](=O)(OC[C@H]1O[C@@](C#N)(c2ccc3c(N)ncnn23)[C@H](O)[C@@H]1O)Oc1ccccc1` [Remdesivir], the CC50 [7] is given as > 100 µM.

In the case of `C=C1CC[C@H](O)C/C1=C/C=C1\CCC[C@]2(C)[C@@H]([C@H](C)CCCC(C)C)CC[C@@H]12` [Vitamin D3, cholecalciferol], the “inhibition of the SARS-CoV-2 virus” value [8] is reported as “about 100%”, the IC50 ([3]; Severe acute respiratory syndrome coronavirus 2, Calu-3) is reported as ~22.3 µM and the EC100 ([9]; Vero E 6 cells, SARS-CoV-2, in words) is reported as “Achieved”. For the same compound, the IC50 ([9]; VeroE6 cells, FIG. 2) was ~33.5 µM and the protein binding [10] was 50-80%.

With `[Zn]` [Zinc] the “cytotoxicity, as measured by cell viability” value ([8]; FIG. 6, in words) was “not observed” and the “inhibition of the SARS-CoV-2 virus” value [8] was “about 75%”.
